Values joined by “and” are separate entries in the source; they are usually repeats but may differ in a detail not shown here. Equal entries are not always repeated. “Also recorded” adds a separate entry of the source. Where two headings read alike, the source gives them in different places.

Data set [1] addresses T1, α1β3γ2L GABAA receptors (Homo sapiens, UniProt P14867+P18507+P28472). Type of data set: cell-based.
The nature of a further data set: Aqueous saturation. As to conditions: aqueous buffer. The format is physicochemical.
Data set [2] has as its target T1, α1β3γ2L GABAA receptors. Type of data set: cell-based. The source holds these as a separate data set.
For data set [3], the target named is α1β3γ2L GABAA receptor open and closed states (Homo sapiens, UniProt P14867+P18507+P28472). Kind of data set: Allosteric modeling of direct activation data. The format is cell-based.
α1β3γ2L GABAA receptor open and closed states, sequence (P14867 28-456): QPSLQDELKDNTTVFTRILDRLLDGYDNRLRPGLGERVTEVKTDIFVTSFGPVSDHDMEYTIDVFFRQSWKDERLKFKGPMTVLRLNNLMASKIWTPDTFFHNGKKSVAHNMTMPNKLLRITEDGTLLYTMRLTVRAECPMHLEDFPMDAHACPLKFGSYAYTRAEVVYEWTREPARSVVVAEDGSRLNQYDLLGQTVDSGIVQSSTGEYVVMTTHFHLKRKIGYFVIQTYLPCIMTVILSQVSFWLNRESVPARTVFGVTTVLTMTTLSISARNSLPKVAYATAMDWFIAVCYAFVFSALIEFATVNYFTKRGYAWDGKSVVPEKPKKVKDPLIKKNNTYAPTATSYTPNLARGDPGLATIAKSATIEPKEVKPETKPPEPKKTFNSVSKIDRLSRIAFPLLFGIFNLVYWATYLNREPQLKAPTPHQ
α1β3γ2L GABAA receptor open and closed states, sequence (P28472 26-473): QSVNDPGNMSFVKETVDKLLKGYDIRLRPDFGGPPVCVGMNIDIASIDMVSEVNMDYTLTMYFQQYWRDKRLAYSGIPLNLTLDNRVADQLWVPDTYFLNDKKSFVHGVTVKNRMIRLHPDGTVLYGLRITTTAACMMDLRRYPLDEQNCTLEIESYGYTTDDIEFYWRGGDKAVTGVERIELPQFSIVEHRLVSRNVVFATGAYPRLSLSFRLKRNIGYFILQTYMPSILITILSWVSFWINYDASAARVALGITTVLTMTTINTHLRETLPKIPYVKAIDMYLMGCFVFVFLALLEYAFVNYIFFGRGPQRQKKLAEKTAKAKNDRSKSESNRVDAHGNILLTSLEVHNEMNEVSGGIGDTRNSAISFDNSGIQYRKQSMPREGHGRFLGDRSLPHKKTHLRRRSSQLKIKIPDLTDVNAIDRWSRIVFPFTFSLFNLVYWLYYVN
α1β3γ2L GABAA receptor open and closed states, sequence (P18507 40-475): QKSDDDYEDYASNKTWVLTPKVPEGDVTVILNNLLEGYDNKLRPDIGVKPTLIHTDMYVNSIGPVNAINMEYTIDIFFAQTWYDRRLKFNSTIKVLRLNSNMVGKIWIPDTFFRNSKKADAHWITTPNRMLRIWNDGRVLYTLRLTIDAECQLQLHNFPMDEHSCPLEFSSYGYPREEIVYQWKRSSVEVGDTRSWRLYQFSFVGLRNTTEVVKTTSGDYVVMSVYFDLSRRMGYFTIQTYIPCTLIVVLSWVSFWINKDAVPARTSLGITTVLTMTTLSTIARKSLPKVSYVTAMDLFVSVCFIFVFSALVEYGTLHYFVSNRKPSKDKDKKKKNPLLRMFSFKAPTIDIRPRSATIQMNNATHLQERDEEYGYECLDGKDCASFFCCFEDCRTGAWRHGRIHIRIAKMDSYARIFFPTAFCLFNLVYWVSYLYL
The target of data set [4] is T1, α1β3γ2L GABAA receptors. As to conditions: 300 μM naphthalene-etomidate; for Percent change in peak current amplitude, GABA EC5 + Etomidate: etomidate 3 μM; for Percent change in peak current amplitude, GABA EC5 + Pentobarbital: pentobarbital 120 μM; for Percent change in peak current amplitude, GABA EC5 + Propofol: propofol 10 μM.
For data set [5], the target named is α1β3γ2L GABAA receptors (α+−β− and γ+−β− transmembrane anesthetic sites) (Homo sapiens, UniProt P14867+P18507+P28472). The experiment in a line: Inhibition of receptor photoaffinity labeling by R-[3H]mTFD-MPAB. As to conditions: for slope for inhibition of R-[3H]mTFD-MPAB photoincorporation: fit to equation 2.
α1β3γ2L GABAA receptors (α+−β− and γ+−β− transmembrane anesthetic sites), sequence (P14867 28-456): as the sequence (P14867 28-456) above
α1β3γ2L GABAA receptors (α+−β− and γ+−β− transmembrane anesthetic sites), sequence (P28472 26-473): as the sequence (P28472 26-473) above
α1β3γ2L GABAA receptors (α+−β− and γ+−β− transmembrane anesthetic sites), sequence (P18507 40-475): as the sequence (P18507 40-475) above
The target in data set [6] is α1β3γ2L GABAA receptors (β+−α− transmembrane anesthetic sites) (Homo sapiens, UniProt P14867+P18507+P28472). Kind of data set: Inhibition of receptor photoaffinity labeling by [3H]azi-etomidate. As to conditions: for slope for inhibition of [3H]azi-etomidate photoincorporation: fit to equation 2.
α1β3γ2L GABAA receptors (β+−α− transmembrane anesthetic sites), sequence (P14867 28-456): as the sequence (P14867 28-456) above
α1β3γ2L GABAA receptors (β+−α− transmembrane anesthetic sites), sequence (P28472 26-473): as the sequence (P28472 26-473) above
α1β3γ2L GABAA receptors (β+−α− transmembrane anesthetic sites), sequence (P18507 40-475): as the sequence (P18507 40-475) above
The target in data set [7] is T1, α1β3γ2L GABAA receptors. The format is cell-based. As to conditions: for EC5 GABA-evoked currents in the presence of drug, as % of those evoked by 1 mM GABA: 300 μM drug, mean ± SD; for maximum peak current amplitude at high drug concentrations, relative to that produced by 1 mM GABA: EC5 GABA; for maximum peak current amplitude at high drug concentrations, relative to that produced by 1 mM GABA / slope of potentiation concentration-response curve: fit to equation 1.

Data set [8] has as its system GABAA receptor transmembrane anesthetic binding sites. As to conditions: photolabel protection studies; cited from earlier work.
The mark [9] stands for this setting: EC5 GABA + 10 μM propofol, fit to equation 2.
Where [10] appears, read: GABA Pre-exposure, mean ± SD, n = 6.
[11] abbreviates: Naphthalene-etomidate Pre-exposure (10 s), mean ± SD, n = 6.
Where [12] appears, read: Simultaneous Addition, mean ± SD, n = 6.
Where [13] appears, read: listed as Naphthalene-etomidate.
Setting [14] is: absence of naphthalene-etomidate.
Setting [15] is: presence of 300 μM naphthalene-etomidate.

T1 sequence (P14867 28-456): as the sequence (P14867 28-456) above
T1 sequence (P28472 26-473): as the sequence (P28472 26-473) above
T1 sequence (P18507 40-475): as the sequence (P18507 40-475) above

With `CCOC(=O)c1cncn1C(C)c1cccc2ccccc12` (stereo not shown) [naphthalene-etomidate], the “fold increase in EC50 for propofol potentiation of EC5 GABA-evoked currents” value at α1β3γ2L GABAA receptors [1] (300 μM naphthalene-etomidate) is 6 fold. On α1β3γ2L GABAA receptors [1] (setting [9]), the “minimum normalized peak current at high naphthalene-etomidate concentrations” value turned out to be 24% and the “slope for inhibition of propofol-potentiated currents” value is −3.9. In the data set “Aqueous saturation”, the near aqueous-saturating concentration was roughly 300 µM. On α1β3γ2L GABAA receptors [2] (same oocyte, no GABA), the “directly activated currents compared with those activated by etomidate” value is on record as “orders of magnitude smaller”. Besides, the “fold lower affinity for the open state of the receptor versus etomidate” value in [3] (comparison of dissociation constants) stood at 27 fold. Besides, the “fold higher affinity for the open state than the closed state” value in [3] (from Kdopen and Kdclosed) amounted to 4.4 fold. Also, on α1β3γ2L GABAA receptors [4], the “fold greater reduction in currents potentiated by propofol compared to currents potentiated by etomidate or pentobarbital” value is “approximately 2 fold”. Further, the “Percent change in peak current amplitude, GABA EC5 + Diazepam” value at α1β3γ2L GABAA receptors [4] (GABA Pre-exposure, diazepam 1 μM, mean ± SD, n = 6) is given as 33 ± 6.9%. At α1β3γ2L GABAA receptors [4] (setting [10]), the “Percent change in peak current amplitude, GABA EC5 + Etomidate” value (“Percent change … GABA EC5 + Etomidate” for short) is listed as −24 ± 1.8%; the “Percent change in peak current amplitude, GABA EC50” value (“Percent change … GABA EC50” below) is 21 ± 9%; the “Percent change in peak current amplitude, GABA EC5 + Pentobarbital” value (“Percent change … GABA EC5 + Pentobarbital” below) is given as −21 ± 5.4%; the “Percent change in peak current amplitude, GABA EC5 + Propofol” value (shortened to “Percent change … GABA EC5 + Propofol”) is listed as −49 ± 4.69%. Moreover, on α1β3γ2L GABAA receptors [4] (setting [11]), the “Percent change … GABA EC5 + Etomidate” value is −47 ± 4.1%; the “Percent change … GABA EC50” value is −8.8 ± 8.6%; the “Percent change … GABA EC5 + Pentobarbital” value is listed as −45 ± 7.9%; the “Percent change … GABA EC5 + Propofol” value was −68 ±6.0%. At α1β3γ2L GABAA receptors [4] (setting [12]), the “Percent change … GABA EC5 + Etomidate” value was −33 ± 7.8%; the “Percent change … GABA EC5 + Pentobarbital” value is listed as −33 ± 7.1%; the “Percent change … GABA EC5 + Propofol” value is on record as −63 ± 7.3%. In addition, the “Percent change … GABA EC50” value at α1β3γ2L GABAA receptors [4] (Simultaneous Addition, mean ± SD, n = 6 oocytes) amounted to 7.3 ± 8.8%. The “slope for inhibition of R-[3H]mTFD-MPAB photoincorporation” value in [5] is on record as −1.3. Further, in data set [5] (setting [13]), the “slope for inhibition of R-[3H]mTFD-MPAB photoincorporation” value is reported as −2.0. In addition, the “inhibition of specific R-[3H]mTFD-MPAB photoincorporation” value in [5] (highest concentrations studied) was no less than 90%. In addition, in [6], the “slope for inhibition of [3H]azi-etomidate photoincorporation” value was −2.0. For the same compound, the “slope for inhibition of [3H]azi-etomidate photoincorporation” value in [6] (setting [13]) is −1.2. For the same compound, the “inhibition of specific [3H]azi-etomidate photoincorporation” value in data set [6] (highest concentrations studied) is no less than 90%. Further, at α1β3γ2L GABAA receptors [7], the “EC5 GABA-evoked currents in the presence of drug, as % of those evoked by 1 mM GABA” value is 11 ± 2.7% and 11%; the “maximum peak current amplitude at high drug concentrations, relative to that produced by 1 mM GABA” value is 11%; the “slope of potentiation concentration-response curve” value is 3.

For `CCOC(=O)c1cncn1[C@H](C)c1ccccc1` [etomidate, reference compound], the “slope of direct activation concentration-response curve” value at α1β3γ2L GABAA receptors [2] (fit to equation 1) was determined as 1.2. Further, the “fold potentiation of EC5 GABA-evoked current” value on α1β3γ2L GABAA receptors [7] (100 μM drug, representative traces, single oocyte) is 14 fold. For the same compound, on α1β3γ2L GABAA receptors [7], the “EC5 GABA-evoked currents in the presence of drug, as % of those evoked by 1 mM GABA” value is reported as 90 ± 7%; the “maximum peak current amplitude at high drug concentrations, relative to that produced by 1 mM GABA” value was 95%; the “slope of potentiation concentration-response curve” value came to 1.2.

Regarding `CC(C)c1cccc(C(C)C)c1O` [propofol], the “peak current amplitude (normalized to 1 mM GABA) produced with EC5 GABA” value on α1β3γ2L GABAA receptors [1] (10 μM propofol, absence of naphthalene-etomidate) came to 61%. In addition, the EC50 on α1β3γ2L GABAA receptors [1] (EC50 for propofol potentiation of EC5 GABA-evoked currents, absence of naphthalene-etomidate, minimum constrained to 5%) was 6 µM. Moreover, the figures for the “maximal peak current response at high propofol concentrations” value at α1β3γ2L GABAA receptors [1] (setting [14]) and on α1β3γ2L GABAA receptors [1] (setting [15]) were 88% and 87%, respectively. Moreover, the “slope of propofol potentiation curve” value at α1β3γ2L GABAA receptors [1] (setting [14]) was found to be 1.5; at α1β3γ2L GABAA receptors [1] (setting [15]), 1.0. Also, the “binding selectivity for β+–α− sites as compared to α+–β−/γ+–β− sites” value in [8] is “essentially no selectivity at all; also recorded: virtually no binding site selectivity”.

As for `CCCC(C)C1(CC)C(=O)NC(=O)NC1=O` (stereo not shown) [pentobarbital], the “binding selectivity for β+–α− sites as compared to α+–β−/γ+–β− sites” value in [8] was “reverse selectivity”.

In general, EC50 refers to the concentration at which the effect is half-maximal.

The values above are taken from paper PMC5645246 (Anesthesiology, 2017).
